Assay results as given in patent US20230295131A1, “INHIBITORS OF RHO-ASSOCIATED COILED-COIL KINASE” (Angion Biomedica Corp., priority 2020, published 2023).
Counter-ions that a name gives are not always drawn. Like-named read-outs stand apart in the source and are kept apart here.

Experiments:
ROCK2 = molecular target: T1, ROCK2 (Homo sapiens, UniProt O75116); assay: ROCK2 kinase binding affinity, DiscoverX KINOMEscan KdELECT; details: for ROCK2 Selectivity: selectivity for ROCK2 over ROCK1 from Kd
T1 construct: T7 phage fusion (kinase-tagged phage) or DNA tag for qPCR detection
Method: (§1) 1. ROCK1 and ROCK2 kinase assays: The ROCK1 and ROCK2 kinase binding affinities of compounds in this disclosure were determined by DiscoverX's KINOMEscan™ KdELECT technology (https://www.discoverx.com/kinomescan-elect-kinase-screening-and-profiling-services): Kinase-tagged T7 phage strains were prepared in an E. coli host derived from the BL21 strain. E. coli were grown to log-phase and infected with T7 phage and incubated with shaking at 32° C. until lysis. The lysates were centrifuged and filtered to remove cell debris. The remaining kinases were produced in HEK-293 cells and subsequently tagged with DNA for qPCR detection. […] The liganded beads were blocked with excess biotin and washed with blocking buffer (SeaBlock (Pierce), 1% BSA, 0.05% Tween 20, 1 mM DTT) to remove unbound ligand and to reduce nonspecific binding. […] Kds were determined using an 11-point 3-fold compound dilution series with three DMSO control points. […] The compounds were then diluted directly into the assays such that the final concentration of DMSO was 0.9%. All reactions performed in polypropylene 384-well plate. Each was a final volume of 0.02 ml. […] The kinase concentration in the eluates was measured by qPCR.

ROCK1 = molecular target: T2, ROCK1 (Homo sapiens, UniProt Q13464); assay: ROCK1 kinase binding affinity, DiscoverX KINOMEscan KdELECT; details: 11-point 3-fold dilution
T2 construct: T7 phage fusion (kinase-tagged phage) or DNA tag for qPCR detection
Method: as §1

[1] = KINOMEscan KdELECT, 11-point 3-fold dilution, read-out: Kd (μM) ROCK2

T2 sequence (Q13464 whole entry, the tested form may be a part): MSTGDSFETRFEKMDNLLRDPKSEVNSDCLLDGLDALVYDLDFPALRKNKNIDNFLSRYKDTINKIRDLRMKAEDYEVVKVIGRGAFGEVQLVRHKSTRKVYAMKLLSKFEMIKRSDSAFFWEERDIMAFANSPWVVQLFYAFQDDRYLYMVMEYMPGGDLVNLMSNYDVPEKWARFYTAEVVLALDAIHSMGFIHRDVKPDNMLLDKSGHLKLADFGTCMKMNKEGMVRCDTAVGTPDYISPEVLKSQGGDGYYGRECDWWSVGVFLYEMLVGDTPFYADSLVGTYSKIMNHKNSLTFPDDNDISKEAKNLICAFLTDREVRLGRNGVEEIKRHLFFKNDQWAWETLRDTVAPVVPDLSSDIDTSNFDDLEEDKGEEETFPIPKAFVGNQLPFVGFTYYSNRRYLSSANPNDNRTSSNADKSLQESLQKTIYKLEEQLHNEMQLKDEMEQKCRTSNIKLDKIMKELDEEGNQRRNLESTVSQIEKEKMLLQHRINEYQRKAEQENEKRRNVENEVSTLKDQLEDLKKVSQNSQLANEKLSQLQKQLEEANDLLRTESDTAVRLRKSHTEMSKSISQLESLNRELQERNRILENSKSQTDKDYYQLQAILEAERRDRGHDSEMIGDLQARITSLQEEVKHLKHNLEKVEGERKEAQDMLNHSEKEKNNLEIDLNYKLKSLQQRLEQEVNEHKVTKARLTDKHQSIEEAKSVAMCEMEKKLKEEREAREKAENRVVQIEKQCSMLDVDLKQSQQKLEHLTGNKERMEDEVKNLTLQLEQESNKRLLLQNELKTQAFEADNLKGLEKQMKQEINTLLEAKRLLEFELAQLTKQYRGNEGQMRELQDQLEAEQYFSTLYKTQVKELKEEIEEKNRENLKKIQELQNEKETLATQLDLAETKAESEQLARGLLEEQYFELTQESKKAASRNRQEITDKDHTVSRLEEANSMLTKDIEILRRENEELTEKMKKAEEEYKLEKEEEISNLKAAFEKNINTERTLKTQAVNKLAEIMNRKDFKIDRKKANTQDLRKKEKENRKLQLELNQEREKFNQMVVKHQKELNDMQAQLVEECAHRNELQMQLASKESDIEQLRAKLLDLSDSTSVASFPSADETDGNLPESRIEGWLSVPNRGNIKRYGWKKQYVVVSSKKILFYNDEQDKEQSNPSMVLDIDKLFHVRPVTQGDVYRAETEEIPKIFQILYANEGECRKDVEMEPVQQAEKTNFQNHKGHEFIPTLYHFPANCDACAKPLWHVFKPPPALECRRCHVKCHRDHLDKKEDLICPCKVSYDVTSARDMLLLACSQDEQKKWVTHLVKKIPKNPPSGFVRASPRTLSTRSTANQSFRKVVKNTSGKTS
T1 sequence (O75116 whole entry, the tested form may be a part): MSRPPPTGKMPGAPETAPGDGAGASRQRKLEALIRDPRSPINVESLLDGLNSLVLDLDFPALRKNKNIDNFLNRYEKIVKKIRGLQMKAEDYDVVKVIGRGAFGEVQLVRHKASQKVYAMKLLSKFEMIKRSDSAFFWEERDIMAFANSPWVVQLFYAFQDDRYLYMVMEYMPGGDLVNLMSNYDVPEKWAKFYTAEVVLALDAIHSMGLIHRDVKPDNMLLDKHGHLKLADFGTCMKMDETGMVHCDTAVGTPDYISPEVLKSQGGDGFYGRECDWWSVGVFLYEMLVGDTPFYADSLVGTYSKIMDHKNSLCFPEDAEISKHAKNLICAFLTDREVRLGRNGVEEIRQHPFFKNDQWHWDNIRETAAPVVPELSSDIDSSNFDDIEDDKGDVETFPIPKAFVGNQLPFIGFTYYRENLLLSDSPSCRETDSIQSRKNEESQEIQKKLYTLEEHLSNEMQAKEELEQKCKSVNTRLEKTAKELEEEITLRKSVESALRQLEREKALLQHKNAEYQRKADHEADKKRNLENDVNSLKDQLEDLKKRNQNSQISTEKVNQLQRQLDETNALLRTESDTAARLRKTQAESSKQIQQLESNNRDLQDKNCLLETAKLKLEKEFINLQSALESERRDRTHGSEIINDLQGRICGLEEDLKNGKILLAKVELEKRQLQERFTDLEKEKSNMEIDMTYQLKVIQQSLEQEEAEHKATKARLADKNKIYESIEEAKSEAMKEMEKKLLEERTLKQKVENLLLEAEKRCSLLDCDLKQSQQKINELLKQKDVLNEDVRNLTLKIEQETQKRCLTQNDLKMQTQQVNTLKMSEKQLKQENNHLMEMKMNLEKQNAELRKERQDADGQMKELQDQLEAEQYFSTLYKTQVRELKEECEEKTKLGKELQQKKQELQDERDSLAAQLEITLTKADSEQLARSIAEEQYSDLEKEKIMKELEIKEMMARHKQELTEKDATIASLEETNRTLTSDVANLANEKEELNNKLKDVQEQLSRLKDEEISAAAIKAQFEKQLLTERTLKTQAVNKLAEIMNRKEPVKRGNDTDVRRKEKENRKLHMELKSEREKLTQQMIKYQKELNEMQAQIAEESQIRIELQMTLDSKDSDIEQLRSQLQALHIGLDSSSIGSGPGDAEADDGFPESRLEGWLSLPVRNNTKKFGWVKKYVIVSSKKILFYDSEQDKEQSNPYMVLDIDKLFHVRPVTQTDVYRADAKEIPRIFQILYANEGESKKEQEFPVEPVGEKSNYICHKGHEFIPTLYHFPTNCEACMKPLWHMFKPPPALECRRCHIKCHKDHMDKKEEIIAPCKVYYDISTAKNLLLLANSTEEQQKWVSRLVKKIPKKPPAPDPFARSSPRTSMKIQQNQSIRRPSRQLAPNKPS

SMILES | Kd (ROCK2; [1]) [µM] | Kd (ROCK1) [µM] | ROCK2 Selectivity (ROCK2) | Kd (ROCK2) [µM]
O[C@H]1CC[C@@H](Nc2nccc(-c3nccc(C#Cc4ccn5cnnc5c4)n3)n2)CC1 [Ex. 97, (1s,4s)-4-((4-([1,2,4]Triazolo[4,3-a]pyridin-7-ylethynyl)-[2,4′-bipyrimidin]-2′-yl)amino)cyclohexanol] | 10 to 100 | 10 to 100 | * (<50-fold selectivity for ROCK2) | –
FC1(F)Oc2ccc(CNc3nccc(-c4nccc(C#Cc5ccc6[nH]ncc6c5)n4)n3)cc2O1 [Ex. 13, 4-((1H-Indazol-5-yl)ethynyl)-N-((2,2-difluorobenzo[d][1,3]dioxol-5-yl)methyl)-[2,4′-bipyrimidin]-2′-amine] | 0.1 to 0.99 | 10 to 100 | ** (50 to 150-fold selectivity for ROCK2) | –
CC(C)(N)CNc1nccc(-c2nccc(C#Cc3ccc4[nH]ncc4c3)n2)n1 [Ex. 89, N1-(4-((1H-Indazol-5-yl)ethynyl)-[2,4′-bipyrimidin]-2′-yl)-2-methylpropane-1,2-diamine] | 0.1 to 0.99 | 1 to 9.9 | * (<50-fold selectivity for ROCK2) | –
Cc1cnc(F)c(CNc2nccc(-c3nccc(C#Cc4ccc5[nH]ncc5c4)n3)n2)c1 [Ex. 72, 4-((1H-Indazol-5-yl)ethynyl)-N-((2-fluoro-5-methylpyridin-3-yl)methyl)-[2,4′-bipyrimidin]-2′-amine] | 10 to 100 | 10 to 100 | * (<50-fold selectivity for ROCK2) | –
CN(C)CCNc1nccc(-c2nccc(C#Cc3ccc4[nH]ncc4c3)n2)n1 [Ex. 54, N1-(4-((1H-Indazol-5-yl)ethynyl)-[2,4′-bipyrimidin]-2′-yl)-N2,N2-dimethylethane-1,2-diamine] | 0.1 to 0.99 | 1 to 9.9 | * (<50-fold selectivity for ROCK2) | –
CC(Nc1nccc(-c2nccc(C#Cc3ccc4[nH]ncc4c3)n2)n1)c1ccc(F)cn1 (stereo not drawn) [Ex. 28, 4-((1H-Indazol-5-yl)ethynyl)-N-(1-(5-fluoropyridin-2-yl)ethyl)-[2,4′-bipyrimidin]-2′-amine] | 0.01 to 0.099 | 1 to 9.9 | * (<50-fold selectivity for ROCK2) | –
CN(Cc1ccc(F)cn1)c1nccc(-c2nccc(C#Cc3ccc4[nH]ncc4c3)n2)n1 [Ex. 30, 4-((1H-Indazol-5-yl)ethynyl)-N-((5-fluoropyridin-2-yl)methyl)-N-methyl-[2,4′-bipyrimidin]-2′-amine] | 0.1 to 0.99 | 1 to 9.9 | * (<50-fold selectivity for ROCK2) | –
COCCNc1nccc(-c2nccc(C#Cc3ccc4[nH]ncc4c3)n2)n1 [Ex. 75, 4-((1H-Indazol-5-yl)ethynyl)-N-(2-methoxyethyl)-[2,4′-bipyrimidin]-2′-amine] | – | 1 to 9.9 | *** (151 to 500-fold selectivity for ROCK2) | < 0.01
Fc1nccc(Cl)c1CNc1nccc(-c2nccc(C#Cc3ccc4[nH]ncc4c3)n2)n1 [Ex. 64, 4-((1H-Indazol-5-yl)ethynyl)-N-((4-chloro-2-fluoropyridin-3-yl)methyl)-[2,4′-bipyrimidin]-2′-amine] | 0.01 to 0.099 | 0.1 to 0.99 | * (<50-fold selectivity for ROCK2) | –
COc1cc(F)ccc1CNc1nccc(-c2nccc(C#Cc3ccc4[nH]ncc4c3)n2)n1 [Ex. 12, 4-((1H-Indazol-5-yl)ethynyl)-N-(4-fluoro-2-methoxybenzyl)-[2,4′-bipyrimidin]-2′-amine] | 0.01 to 0.099 | 1 to 9.9 | *** (151 to 500-fold selectivity for ROCK2) | –
Fc1ccc(CCNc2nccc(-c3nccc(C#Cc4ccc5[nH]ncc5c4)n3)n2)nc1 [Ex. 39, 4-((1H-Indazol-5-yl)ethynyl)-N-(2-(5-fluoropyridin-2-yl)ethyl)-[2,4′-bipyrimidin]-2′-amine] | 0.01 to 0.099 | 1 to 9.9 | ** (50 to 150-fold selectivity for ROCK2) | –
Fc1ccc(CNc2nccc(-c3nccc(C#Cc4ccc5[nH]ncc5c4)n3)n2)cn1 [Ex. 47, 4-((1H-Indazol-5-yl)ethynyl)-N-((6-fluoropyridin-3-yl)methyl)-[2,4′-bipyrimidin]-2′-amine] | 0.01 to 0.099 | 1 to 9.9 | ** (50 to 150-fold selectivity for ROCK2) | –
O=C(CNc1nccc(-c2nccc(C#Cc3ccc4[nH]nc(F)c4c3)n2)n1)N1CCOCC1 [Ex. 77, 2-((4-((3-Fluoro-1H-indazol-5-yl)ethynyl)-[2,4′-bipyrimidin]-2′-yl)amino)-1-morpholinoethanone] | 0.01 to 0.099 | 10 to 100 | *** (151 to 500-fold selectivity for ROCK2) | –
C(#Cc1ccnc(-c2ccnc(NCc3ccc4c(c3)CNC4)n2)n1)c1ccc2[nH]ncc2c1 [Ex. 20, 4-((1H-Indazol-5-yl)ethynyl)-N-(isoindolin-5-ylmethyl)-[2,4′-bipyrimidin]-2′-amine trifluoroacetate salt] | 0.01 to 0.099 | 0.1 to 0.99 | * (<50-fold selectivity for ROCK2) | –
Fc1ccc(CNc2nccc(-c3nccc(C#Cc4cc(F)c5[nH]ncc5c4)n3)n2)nc1 [Ex. 36, 4-((7-Fluoro-1H-indazol-5-yl)ethynyl)-N-((5-fluoropyridin-2-yl)methyl)-[2,4′-bipyrimidin]-2′-amine] | 0.01 to 0.099 | 1 to 9.9 | ** (50 to 150-fold selectivity for ROCK2) | –
C(#Cc1ccnc(-c2ccnc(NCc3ccccc3)n2)n1)c1ccc2[nH]ncc2c1 [Ex. 14, 4-((1H-Indazol-5-yl)ethynyl)-N-benzyl-[2,4′-bipyrimidin]-2′-amine] | 0.01 to 0.099 | 1 to 9.9 | * (<50-fold selectivity for ROCK2) | –
CC(Nc1nccc(-c2nccc(C#Cc3ccc4[nH]ncc4c3)n2)n1)C1CCCO1 (stereo not drawn) [Ex. 67, 4-((1H-Indazol-5-yl)ethynyl)-N-(1-(tetrahydrofuran-2-yl)ethyl)-[2,4′-bipyrimidin]-2′-amine] | 0.01 to 0.099 | 1 to 9.9 | * (<50-fold selectivity for ROCK2) | –

Now from value to compound, other results behind:

Kd (ROCK2; [1]) [µM] | Kd (ROCK1) [µM] | SMILES | ROCK2 Selectivity (ROCK2) | Kd (ROCK2) [µM]
< 0.01 | 0.1 to 0.99 | FC(F)(F)c1ccc(CNc2nccc(-c3nccc(C#Cc4ccc5[nH]ncc5c4)n3)n2)nc1 [Ex. 48, 4-((1H-Indazol-5-yl)ethynyl)-N-((5-(trifluoromethyl)pyridin-2-yl)methyl)-[2,4′-bipyrimidin]-2′-amine] | ** (50 to 150-fold selectivity for ROCK2) | –
< 0.01 | 1 to 9.9 | CS(=O)(=O)CCNc1nccc(-c2nccc(C#Cc3ccc4[nH]ncc4c3)n2)n1 [Ex. 56, 4-((1H-Indazol-5-yl)ethynyl)-N-(2-(methylsulfonyl)ethyl)-[2,4′-bipyrimidin]-2′-amine] | **** (>500-fold selectivity for ROCK2) | –
0.01 to 0.099 | 10 to 100 | Fc1ncccc1CNc1nccc(-c2nccc(C#Cc3ccc4[nH]nc(F)c4c3)n2)n1 [Ex. 43, 4-((3-Fluoro-1H-indazol-5-yl)ethynyl)-N-((2-fluoropyridin-3-yl)methyl)-[2,4′-bipyrimidin]-2′-amine] | *** (151 to 500-fold selectivity for ROCK2) | –
0.01 to 0.099 | 1 to 9.9 | Fc1cc(F)c(F)c(CNc2nccc(-c3nccc(C#Cc4ccc5[nH]ncc5c4)n3)n2)c1 [Ex. 37, 4-((1H-Indazol-5-yl)ethynyl)-N-(2,3,5-trifluorobenzyl)-[2,4′-bipyrimidin]-2′-amine] | *** (151 to 500-fold selectivity for ROCK2) | –
0.01 to 0.099 | 1 to 9.9 | C(#Cc1ccnc(-c2ccnc(NCc3ccccn3)n2)n1)c1ccc2[nH]ncc2c1 [Ex. 22, 4-((1H-Indazol-5-yl)ethynyl)-N-(pyridin-2-ylmethyl)-[2,4′-bipyrimidin]-2′-amine] | ** (50 to 150-fold selectivity for ROCK2) | –
< 0.01 | 1 to 9.9 | Fc1cc(CNc2nccc(-c3nccc(C#Cc4ccc5[nH]ncc5c4)n3)n2)ccn1 [Ex. 33, 4-((1H-Indazol-5-yl)ethynyl)-N-((2-fluoropyridin-4-yl)methyl)-[2,4′-bipyrimidin]-2′-amine] | *** (151 to 500-fold selectivity for ROCK2) | –
< 0.01 | 0.1 to 0.99 | Fc1cnc(CNc2nccc(-c3nccc(C#Cc4ccc5[nH]ncc5c4)n3)n2)c(F)c1 [Ex. 38, 4-((1H-Indazol-5-yl)ethynyl)-N-((3,5-difluoropyridin-2-yl)methyl)-[2,4′-bipyrimidin]-2′-amine] | ** (50 to 150-fold selectivity for ROCK2) | –
< 0.01 | 0.1 to 0.99 | COC(=O)[C@H]1CC[C@H](Nc2nccc(-c3nccc(C#Cc4ccc5[nH]ncc5c4)n3)n2)CC1 [Ex. 86, (1r,4r)-Methyl 4-((4-((1H-indazol-5-yl)ethynyl)-[2,4′-bipyrimidin]-2′-yl)amino)cyclohexanecarboxylate] | *** (151 to 500-fold selectivity for ROCK2) | –
< 0.01 | 0.1 to 0.99 | OC[C@H]1CC[C@@H](CNc2nccc(-c3nccc(C#Cc4ccc5[nH]ncc5c4)n3)n2)O1 [Ex. 51, ((2R,5S)-5-(((4-((1H-Indazol-5-yl)ethynyl)-[2,4′-bipyrimidin]-2′-yl)amino)methyl)tetrahydrofuran-2-yl)methanol] | *** (151 to 500-fold selectivity for ROCK2) | –
